Tests used:
Type in all cases: biochemical
JAK1 kinase = molecular target: T1, JAK1 kinase (Homo sapiens, UniProt P23458); test: IC50 evaluation assay on JAK1 kinase inhibition (Caliper); details: adenosine triphosphate at Km; 1 hour at 28° C.; average of two tests; read-out: IC50 (nM) inhibiting JAK 1 kinase
T1 construct: purchased Carna 08-144
Procedure: (§1) 1. The compound was dissolved in 100% DMSO, diluted into solutions with appropriate concentration gradients with water according to experimental requirement, and added to a 384-well plate.
(§2) 2. JAK2 kinase (Carna, Cat. No. 08-045, Lot. No. 07CBS-1927) and JAK3 kinase (Carna, Cat. No. 08-046, Lot. No. 08CBS-0371) were diluted to the optimum concentration with the following buffer solution: 50 mM HEPES, pH 7.5, 0.0015% Brij-35, 2 mM DTT. JAK1 kinase (Carna, Cat. No. 08-144, Lot. No. 11CBS-0144D) was diluted to the optimum concentration with the following buffer solution: 25 mM HEPES pH 7.5, 0.01% Brij-35, 2 mM DTT, 0.01M Triton. Transfer to the 384-well plate and incubated with the compound for a period of time.
(§3) 3. […] The substrate of JAK1 was diluted to the optimum concentration with the following buffer: 25 mM HEPES, pH 7.5, 0.01% Brij-35, 10 mM MgCl2, 0.01M Triton, adenosine triphosphate at Km. Add to the 384-well plate to initiate there action and react for 1 hour at 28° C.
(§4) 4. 1 Eq. of sulfuric acid solution was added to terminate the reaction, the conversion rate was read with Caliper Reader. The inhibition rate was calculated as the average of two tests.

JAK2 kinase = molecular target: T2, JAK2 kinase (Homo sapiens, UniProt O60674); test: IC50 evaluation assay on JAK2 kinase inhibition (Caliper); details: adenosine triphosphate at Km; 1 hour at 28° C.; average of two tests; read-out: IC50 (nM) inhibiting JAK 2 kinase
T2 construct: purchased Carna 08-045
T2 sequence (O60674 whole entry): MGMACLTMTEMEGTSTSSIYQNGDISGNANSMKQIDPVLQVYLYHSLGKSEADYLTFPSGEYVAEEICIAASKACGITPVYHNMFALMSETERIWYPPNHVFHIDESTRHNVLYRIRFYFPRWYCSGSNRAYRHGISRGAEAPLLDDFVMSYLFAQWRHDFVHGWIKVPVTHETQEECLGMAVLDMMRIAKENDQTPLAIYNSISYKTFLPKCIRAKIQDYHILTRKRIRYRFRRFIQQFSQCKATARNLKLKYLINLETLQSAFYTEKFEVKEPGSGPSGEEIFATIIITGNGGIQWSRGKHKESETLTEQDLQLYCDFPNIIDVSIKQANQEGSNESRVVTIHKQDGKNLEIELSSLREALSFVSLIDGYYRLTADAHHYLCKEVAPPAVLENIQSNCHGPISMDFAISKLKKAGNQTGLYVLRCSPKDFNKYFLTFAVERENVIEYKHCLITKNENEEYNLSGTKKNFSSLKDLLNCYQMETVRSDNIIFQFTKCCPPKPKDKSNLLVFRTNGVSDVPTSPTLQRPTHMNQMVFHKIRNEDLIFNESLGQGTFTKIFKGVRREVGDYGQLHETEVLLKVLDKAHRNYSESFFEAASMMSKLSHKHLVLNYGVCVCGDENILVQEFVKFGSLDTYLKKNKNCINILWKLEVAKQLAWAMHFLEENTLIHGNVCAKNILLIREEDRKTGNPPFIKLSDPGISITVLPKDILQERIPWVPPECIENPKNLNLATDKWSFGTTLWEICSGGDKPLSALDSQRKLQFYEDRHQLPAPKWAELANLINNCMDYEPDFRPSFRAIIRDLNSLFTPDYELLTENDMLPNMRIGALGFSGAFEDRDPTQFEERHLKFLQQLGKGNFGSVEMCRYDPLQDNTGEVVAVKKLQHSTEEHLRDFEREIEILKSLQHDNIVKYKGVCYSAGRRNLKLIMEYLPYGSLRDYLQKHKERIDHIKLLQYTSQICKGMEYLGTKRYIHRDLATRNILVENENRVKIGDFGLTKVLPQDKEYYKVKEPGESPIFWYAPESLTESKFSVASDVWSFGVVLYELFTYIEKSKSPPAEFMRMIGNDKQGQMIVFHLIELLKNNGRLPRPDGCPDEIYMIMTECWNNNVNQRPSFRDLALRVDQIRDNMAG
Procedure: as §1, §2, §3, §4

JAK3 kinase = molecular target: T3, JAK3 kinase (Homo sapiens, UniProt P52333); test: IC50 evaluation assay on JAK3 kinase inhibition (Caliper); details: adenosine triphosphate at Km; 1 hour at 28° C.; average of two tests; read-out: IC50 (nM) inhibiting JAK 3 kinase
T3 construct: purchased Carna 08-046
T3 sequence (P52333 1-1124): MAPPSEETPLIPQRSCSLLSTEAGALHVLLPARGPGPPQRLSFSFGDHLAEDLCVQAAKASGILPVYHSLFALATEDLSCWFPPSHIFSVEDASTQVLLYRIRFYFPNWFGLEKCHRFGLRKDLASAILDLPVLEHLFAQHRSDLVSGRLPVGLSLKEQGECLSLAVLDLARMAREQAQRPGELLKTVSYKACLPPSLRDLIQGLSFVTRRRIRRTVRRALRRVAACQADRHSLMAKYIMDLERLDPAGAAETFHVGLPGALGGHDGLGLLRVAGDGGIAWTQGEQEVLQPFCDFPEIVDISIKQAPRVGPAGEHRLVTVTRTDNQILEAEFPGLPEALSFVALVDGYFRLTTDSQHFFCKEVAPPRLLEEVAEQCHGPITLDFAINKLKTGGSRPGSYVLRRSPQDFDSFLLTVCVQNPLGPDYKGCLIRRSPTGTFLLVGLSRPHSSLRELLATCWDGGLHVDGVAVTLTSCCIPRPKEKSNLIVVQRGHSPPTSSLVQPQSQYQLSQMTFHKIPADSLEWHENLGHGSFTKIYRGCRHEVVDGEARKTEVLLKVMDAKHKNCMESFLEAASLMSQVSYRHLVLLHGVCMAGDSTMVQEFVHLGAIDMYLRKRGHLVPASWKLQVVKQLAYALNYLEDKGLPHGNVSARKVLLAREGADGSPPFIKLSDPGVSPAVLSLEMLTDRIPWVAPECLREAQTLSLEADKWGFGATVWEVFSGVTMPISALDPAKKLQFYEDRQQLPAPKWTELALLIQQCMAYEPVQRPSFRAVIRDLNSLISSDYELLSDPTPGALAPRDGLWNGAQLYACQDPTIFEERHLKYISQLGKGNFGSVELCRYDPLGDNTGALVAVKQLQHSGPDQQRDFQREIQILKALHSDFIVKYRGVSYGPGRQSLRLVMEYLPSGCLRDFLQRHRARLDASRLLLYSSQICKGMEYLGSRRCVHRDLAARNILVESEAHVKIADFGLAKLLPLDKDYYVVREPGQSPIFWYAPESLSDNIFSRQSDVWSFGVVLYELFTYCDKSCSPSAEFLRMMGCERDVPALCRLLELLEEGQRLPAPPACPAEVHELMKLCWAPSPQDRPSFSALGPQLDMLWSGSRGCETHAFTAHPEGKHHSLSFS
Procedure: as §1, §2, §3, §4

T1 sequence (P23458 whole entry): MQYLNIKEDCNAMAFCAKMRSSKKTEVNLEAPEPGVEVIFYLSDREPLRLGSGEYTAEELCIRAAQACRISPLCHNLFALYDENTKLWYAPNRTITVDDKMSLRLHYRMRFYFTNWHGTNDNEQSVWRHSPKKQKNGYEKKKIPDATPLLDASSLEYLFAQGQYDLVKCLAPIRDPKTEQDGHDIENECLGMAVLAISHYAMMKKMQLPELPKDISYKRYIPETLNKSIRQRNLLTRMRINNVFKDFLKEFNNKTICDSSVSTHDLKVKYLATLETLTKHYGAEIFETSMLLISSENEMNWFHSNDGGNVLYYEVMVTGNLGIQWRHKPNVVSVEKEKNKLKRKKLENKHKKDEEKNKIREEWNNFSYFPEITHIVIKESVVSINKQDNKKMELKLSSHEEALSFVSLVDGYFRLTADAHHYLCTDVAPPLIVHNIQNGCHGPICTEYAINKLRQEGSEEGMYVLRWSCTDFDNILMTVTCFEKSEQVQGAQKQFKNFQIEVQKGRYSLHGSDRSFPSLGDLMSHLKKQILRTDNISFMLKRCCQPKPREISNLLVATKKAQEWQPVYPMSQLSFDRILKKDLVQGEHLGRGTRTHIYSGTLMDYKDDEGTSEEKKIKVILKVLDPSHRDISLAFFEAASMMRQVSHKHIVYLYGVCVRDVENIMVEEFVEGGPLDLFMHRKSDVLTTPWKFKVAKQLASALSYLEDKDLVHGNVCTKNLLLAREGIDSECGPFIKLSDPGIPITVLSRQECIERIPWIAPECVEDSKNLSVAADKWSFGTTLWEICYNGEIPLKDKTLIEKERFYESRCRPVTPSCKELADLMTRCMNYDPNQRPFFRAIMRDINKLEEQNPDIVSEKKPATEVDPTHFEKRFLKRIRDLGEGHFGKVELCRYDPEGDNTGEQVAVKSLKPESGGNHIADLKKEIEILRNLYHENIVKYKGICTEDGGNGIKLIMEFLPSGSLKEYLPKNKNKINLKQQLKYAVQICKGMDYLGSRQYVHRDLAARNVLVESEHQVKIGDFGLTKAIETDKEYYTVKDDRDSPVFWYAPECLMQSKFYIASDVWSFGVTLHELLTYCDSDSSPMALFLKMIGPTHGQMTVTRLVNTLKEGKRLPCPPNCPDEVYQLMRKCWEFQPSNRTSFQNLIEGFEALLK

Compound	IC50 (JAK1 kinase) [nM]	IC50 (JAK2 kinase) [nM]	IC50 (JAK3 kinase) [nM]
COc1ccccc1-c1c(C)sc2cnc(Nc3cnn(C4CCNCC4)c3)nc12 [Compound 35, N-[7-(2-methoxyphenyl)-6-methylthieno[3,2-d]pyrimidinyl-2-yl]-1-(piperidinyl-4-yl)-1H-pyrazol-4-amine]	3.8	0.7	0.84
COc1ccc(-c2c(C)sc3cnc(Nc4cnn(C)c4)nc23)c(OC)c1 [Compound 7, N-[7-(2,4-dimethoxyphenyl)-6-methylthieno[3,2-d]pyrimidinyl-2-yl]-1-methyl-1H-pyrazol-4-amine]	13	1.2	1.8
COc1cc(OCCCN2CCOCC2)ccc1-c1c(C)sc2cnc(Nc3cnn(C)c3)nc12 [Compound 17, N-(7-{2-methoxy-4-[3-(4-morpholinyl)propoxy]phenyl}-6-methylthieno[3,2-d]pyrimidinyl-2-yl)-1-methyl-1H-pyrazol-4-amine]	16	2.3	1.3
Cc1sc2cnc(Nc3cnn(C)c3)nc2c1-c1ccccc1N(C)C [Compound 41, N-{7-[2-(dimethylamino)phenyl]-6-methylthieno[3,2-d]pyrimidin-2-yl}-1-methyl-1H-pyrazol-4-amine]	41	36	33.7
COc1cc(Cl)ccc1-c1c(C)sc2cnc(Nc3cnn(C)c3)nc12 [Compound 6, N-[7-(4-chloro-2-dimethoxyphenyl)-6-methylthieno[3,2-d]pyrimidinyl-2-yl]-1-methyl-1H-pyrazol-4-amine]	12	1.4	1.4
COc1ccccc1-c1c(C)sc2cnc(Nc3cnn(CCN4CCN(C)CC4)c3)nc12 [Compound 22]	43	1.7	1.5
Cc1sc2cnc(Nc3cnn(C)c3)nc2c1-c1ccccc1OC(F)F [Compound 10, N-{7-[2-(difluoromethoxy)phenyl]-6-methylthieno[3,2-d]pyrimidinyl-2-yl]-1-methyl-1H-pyrazol-4-amine]	10.6	1.1	3.6
CN(c1ccccc1-c1csc2cnc(Nc3cnn(C)c3)nc12)S(C)(=O)=O [Compound 28, N-methyl-N-(2-{2-[(1-methyl-1H-pyrazol-4-yl)amino]thieno[3,2-d]pyrimidinyl-7-yl}phenyl)methanesulfonamide]	75.8	23	1.3
COc1ccncc1-c1c(C)sc2cnc(Nc3cnn(C)c3)nc12 [Compound 42]	47	13	29
COc1cc(OCCCN2CCC2)ccc1-c1c(C)sc2cnc(Nc3cnn(C)c3)nc12 [Compound 16]	34	6.1	6.4
Cc1sc2cnc(Nc3cnn(C4CCNCC4)c3)nc2c1-c1cccc2c1OCC2 [Compound 32, N-[7-(2,3-dihyro-1-benzofuran-7-yl)-6-methylthieno[3,2-d]pyrimidinyl-2-yl]-1-(piperidinyl-4-yl)-1H-pyrazol-4-amine]	6.6	0.79	0.42

Second part, the compound after the results:

IC50 (JAK1 kinase) [nM]	IC50 (JAK2 kinase) [nM]	IC50 (JAK3 kinase) [nM]	Compound
12	1.6	1.6	COc1ccccc1-c1c(C)sc2cnc(Nc3cnn(CCCN4CCCC4)c3)nc12 [Compound 26, N-[7-(2-methoxyphenyl)-6-methylthieno[3,2-d]pyrimidinyl-2-yl]-1-[3-(1-pyrrolidinyl)propyl]-1H-pyrazol-4-amine]
1.1	0.37	0.64	COc1cc(OCC(=O)N2CCC2)ccc1-c1c(C)sc2cnc(Nc3cnn(C)c3)nc12 [Compound 23]
30.4	0.8	15.9	Cc1sc2cnc(Nc3cnn(C)c3)nc2c1-c1ccccc1OC(C)C [Compound 29, 1-Methyl-N-{6-methyl-7-[2-(isopropoxy)phenyl]thieno[3,2-d]pyrimidinyl-2-yl]-1H-pyrazol-4-amine]
7.2	1.7	1	COc1ncccc1-c1c(C)sc2cnc(Nc3cnn(C)c3)nc12 [Compound 43]
12	1.8	1.4	COc1cc(O[C@@H]2CCOC2)ccc1-c1c(C)sc2cnc(Nc3cnn(C)c3)nc12 [Compound 12, N-(7-{2-methoxy-4-[(3R)-3-tetrahydrofuranoxyl]phenyl]-6-methylthieno[3,2-d]pyrimidinyl-2-yl]-1-methyl-1H-pyrazol-4-amine]
1.3	0.31	0.39	COc1ccccc1-c1c(C)sc2cnc(Nc3cnn(CCO)c3)nc12 [Compound 21, 2-(4-{[7-(2-methoxyphenyl)-6-methylthieno[3,2-d]pyrimidinyl-2-yl]amino}-1H-pyrazol-1-yl)-1-ethanol]
13	1.8	2.1	COc1cc(O[C@H]2CCOC2)ccc1-c1c(C)sc2cnc(Nc3cnn(C)c3)nc12 [Compound 15, N-(7-{2-methoxy-4-[(3S)-3-tetrahydrofuranoxy]phenyl}-6-methylthieno[3,2-d]pyrimidinyl-2-yl]-1-methyl-1H-pyrazol-4-amine]
10	2.3	1.6	COc1cc(F)ccc1-c1c(C)sc2cnc(Nc3cnn(CCCN4CCCC4)c3)nc12 [Compound 27, N-[7-(4-fluoro-2-methoxyphenyl)-6-methylthieno[3,2-d]pyrimidinyl-2-yl]-1-[3-(1-pyrrolidinyl)propyl]-1H-pyrazol-4-amine]
2.4	5.8	1	COc1ccccc1-c1cccc2cnc(Nc3cnn(C4CCNCC4)c3)nc12 [Compound 45, 8-(2-Methoxyphenyl)-N-[1-(4-piperidinyl)-1H-pyrazol-4-yl]quinazolin-2-amine]
6.8	1.7	1.7	COc1ccccc1-c1c(C)sc2cnc(Nc3cnn(C)c3)nc12 [Compound 1, N-[7-(2-methoxyphenyl)-6-methylthieno[3,2-d]pyrimidinyl-2-yl]-1-methyl-1H-pyrazol-4-amine]
16	1.3	3.1	COc1cc(S(C)(=O)=O)ccc1-c1c(C)sc2cnc(Nc3cnn(C)c3)nc12 [Compound 4]
18.5	8.9	12.9	Cc1sc2cnc(Nc3cnn(C)c3)nc2c1-c1ccccc1Cl [Compound 33, N-[7-(2-chlorophenyl)-6-methylthieno[3,2-d]pyrimidinyl-2-yl]-1-methyl-1H-pyrazol-4-amine]
58	2.1	9.8	COc1cc(S(C)(=O)=O)ccc1-c1cccc2cnc(Nc3cnn(C4CCNCC4)c3)nc12 [Compound 49, 8-(4-methylsulfonyl-2-methoxyphenyl)-N-[1-(4-piperidin)-1H-pyrazol-4-yl]quinazolin-2-amine]
8.5	1.9	5.1	Cc1sc2cnc(Nc3cnn(C)c3)nc2c1-c1cccc2c1OCO2 [Compound 30, N-[7-(2H-1,3-benzodioxol-4-yl)-6-methylthieno[3,2-d]pyrimidinyl-2-yl]-1-methyl-1H-pyrazol-4-amine]

Reference: US10494378B2, “Fused ring pyrimidine compound, intermediate, and preparation method, composition and use thereof” (GUANGZHOU MAXINOVEL PHARMACEUTICALS CO., LTD., priority 2015, dated 2019)
